Key:
[1] = system: Aβ plaques on AD sections; assay: Assay 1 (fluorescence based assay): direct staining of human Alzheimer's disease brain sections; format: binding; design: key: − (No); +/− (very weak); + (weak); ++ (good); +++ (strong); conditions: staining intensity; compound 100 μM, frozen amygdala sections, AD Braak stage V-VI
Description: Direct Staining of Compounds of this Invention to Human Alzheimer's Disease Brain Sections 20 μm frozen sections from amygdala were purchased from an external provider (Tissue Solutions Ltd.). Donors were diagnosed with AD, Braak stage V-VI (Braak et al., Neurobiol. Aging, 1995, 16, 271-284) and thus with confirmed Aβ pathology. Sections were kept at −80° C. until start of the experiment. Brain sections were encircled with pap pen liquid blocker to reduce the volume of solution for the different incubations. Sections were fixed for 15 min at 4° C. with 4% paraformaldehyde and washed three times for 5 minutes with PBS at room temperature. Test compounds were incubated on the sections at 100 μM in 50% ethanol in water for 30 min at room temperature, followed by three washes of 5 minutes with PBS. Sections were then saturated and permeabilized in blocking buffer (PBS, 10% NGS, 0.25% Triton) for 1 hour at room temperature and then incubated for 2 hours at room temperature with the primary antibodies against AR, 4G8, (Covance, SIG-39220), diluted 1/250 in PBS, 5% NGS, and 0.25% Triton. After three washes in PBS, the sections were incubated for 30 minutes at room temperature with a secondary anti-mouse antibody labeled with AlexaFluor555 (Invitrogen A21422) and further washed three times in PBS. To reduce auto-fluorescence of the tissue, the sections were incubated in a solution of 0.1% Sudan Black (Sigma 199664) in 70% ethanol for 15 min at room temperature, followed by four washes with PBS and mounted under cover slips using ProLong Gold Antifade reagent (Invitrogen P36930). Sections were analyzed on the Nikon Eclipse Ti microscope to detect staining and imaged using Nikon DS-Fi2 camera and NIS-Element AR4.13.1 software.

[2] = target: T1, aSyn aggregates on PD sections (Homo sapiens, UniProt P37840); assay: Assay 1 (fluorescence based assay): direct staining of human Parkinson's disease brain sections; format: binding; design: key: − (No); +/− (very weak); + (weak); ++ (good); +++ (strong); conditions: staining intensity; compound 100 μM, frozen amygdala sections, PD Braak stage V-VI
T1 construct: 20 μm frozen sections from amygdala were purchased from an external provider (Tissue Solutions Ltd.); tissue Tissue Solutions Ltd; host or cells: human PD amygdala, frozen sections, Braak stage V-VI
Source text: Assay 1 (Fluorescence Based Assay):
Direct Staining of Compounds of this Invention to Human Parkinson's Disease Brain Sections
20 μm frozen sections from amygdala were purchased from an external provider (Tissue Solutions Ltd.). Donors were diagnosed with PD, Braak stage V-VI (Braak et al., Neurobiol. Aging, 2003, 24, 197-211) and thus with confirmed aSyn pathology. PD donors, Braak stage V-VI with mixed pathology, containing aSyn aggregates as well as Aβ plaques, were also used in this assay. Sections were kept at −80° C. until start of the experiment.
Brain sections were encircled with pap pen liquid blocker to reduce the volume of solution for the different incubations. Sections were fixed for 15 min at 4° C. with 4% paraformaldehyde and washed three times for 5 minutes with PBS (phosphate buffered saline) at room temperature. Test compounds were incubated on the sections at 100 μM in 50% ethanol in water for 30 min at room temperature, followed by three washes of 5 minutes with PBS. Sections were then saturated and permeabilized in blocking buffer (PBS, 10% NGS, 0.25% Triton) for 1 hour at room temperature and then incubated for 2 hours at room temperature with the primary antibodies against aSyn: aSyn-211 (SantaCruz Biotechnology sc-12767) or aSyn-pS129 (Abcam AB51253), and primary antibody against AR, 4G8, (Covance, SIG-39220). All primary antibodies diluted 1/250 in PBS, 5% NGS, 0.25% Triton. After three washes in PBS, the sections were incubated for 30 minutes at room temperature with a secondary anti-mouse antibody labeled with AlexaFluor555 (Invitrogen A21422) or anti-rabbit antibody labeled with AlexaFluor555 (Invitrogen A21428) and further washed three times in PBS. To reduce auto-fluorescence of the tissue, the sections were incubated in a solution of 0.1% Sudan Black (Sigma 199664) in 70% ethanol for 15 min at room temperature, followed by four washes with PBS and mounted under cover slips using ProLong Gold Antifade reagent (Invitrogen P36930).
Sections were analyzed on the Nikon Eclipse Ti microscope to detect staining and imaged using Nikon DS-Fi2 camera and NIS-Element AR4.13.1 software.

| Staining of aSyn aggregates on PD sections [2] | Structure (SMILES) | Staining of Aβ plaques on AD sections [1] |
| --- | --- | --- |
| ++ | CNc1ccc(-c2ccc3cc(-c4cccnc4)sc3n2)cc1 [Example 14] | +++ |
| ++ | COc1cccc(/C=C/c2ccc3cc(-c4cccnc4)sc3n2)c1 [Example 16] | ++ |
| + | F[C@@H]1CCN(c2ccc(-c3ccc4cc(-c5cccnc5)sc4n3)cn2)C1 [Example 45] | ++ |
| + | Cn1cc(-c2ccc3sc(-c4ccc(N5CC[C@@H](F)C5)nc4)nc3c2)cn1 [Example 52] | − |
| +++ | O=C1COCCN1c1ccc2nc(-c3ccc(N4CC[C@@H](F)C4)nc3)sc2c1 [Example 72] | + |
| + | CN1CCN(c2ccc3nc(-c4ccc(N5CC[C@H](F)C5)nc4)sc3c2)C(=O)C1 [Example 71] | − |
| + | CN(C)c1ncc(-c2ccc3cc(-c4cccnc4)sc3n2)cn1 [Example 29] | ++ |
| +++ | Fc1ccncc1-c1ccc2sc(-c3ccc(N4CCCC4)nc3)nc2c1 [Example 40] | + |
| +++ | c1cncc(-c2cc3ccc(-c4ccc(N5CCOCC5)cc4)nc3s2)c1 [Example 33] | + |
| + | CN1CCN(c2ccc3nc(-c4ccc(N5CC[C@@H](F)C5)nc4)sc3c2)C(=O)C1 [Example 70] | + |
| + | Fc1cncc(-c2ccc3sc(-c4ccc(N5CCCC5)nc4)cc3n2)c1 [Example 28] | + |
| ++ | Cn1cc(-c2ccc3sc(-c4ccc(N5CC[C@@H](F)C5)nc4)cc3n2)cn1 [Example 51] | + |
| ++ | c1ncc(-c2cc3ccc(-c4ccc(N5CCCC5)nc4)nc3s2)cn1 [Example 35] | ++ |
| ++ | CN(CCF)c1ccc(-c2ccc3cc(-c4cccnc4)sc3n2)cn1 [Example 57] | + |
| +++ | CNc1ccc(-c2ccc3cc(-c4cccnc4)sc3n2)cn1 [Example 47] | +++ |
| + | FCCOc1ccc(-c2cc3ccc(-c4ccc(F)nc4)nc3s2)cc1 [Example 12] | ++ |
| + | FCCOC1CCN(c2cc3nc(-c4ccc(N5CCCC5)nc4)sc3cn2)CC1 [Example 68] | − |
| ++ | OCCOC1CCN(c2ccc3cc(-c4cccnc4)sc3n2)CC1 [Example 49] | ++ |
| ++ | CNc1ccc(-c2ccc3cc(-c4ccccc4OC)sc3n2)cn1 [Example 7] | +++ |
| ++ | O=C1COCCN1c1ccc2nc(-c3ccc(N4CCC[C@H](F)C4)nc3)sc2c1 [Example 127] | + |
| ++ | c1ccc(-c2cc3ccc(-c4ccc(N5CCCC5)nc4)nc3s2)nc1 [Example 21] | ++ |
| + | c1cncc(-c2cc3ccc(Nc4ccc5c(c4)OCCO5)nc3s2)c1 [Example 64] | +++ |

| Staining of aSyn aggregates on PD sections [2] | Structure (SMILES) | Staining of Aβ plaques on AD sections [1] |
| --- | --- | --- |
| + | O=C1c2sc(-c3ccc(N4CCCC4)nc3)nc2CCN1CCF [Example 78] | + |
| + | CNc1ccc(-c2cc3ccc(Nc4ccc(N5CCOCC5)cc4)nc3s2)cc1 [Example 76] | +++ |
| + | CNc1ccc(-c2cc3ccc(Nc4ccc(OCCF)cc4)nc3s2)cc1 [Example 74] | +++ |
| + | FCCOc1ccc(-c2cc3ccc(Nc4ccc5c(c4)OCCO5)nc3s2)cc1 [Example 58] | ++ |
| ++ | CNc1ccc(-c2ccc3cc(-c4ccc(F)nc4)sc3n2)cn1 [Example 8] | +++ |
| ++ | CN1CCN(c2ccc3nc(-c4ccc(N5CCCC5)nc4)sc3c2)C(=O)C1 [Example 69] | + |
| ++ | FC1CCN(c2ccc(-c3ccc4cc(-c5cccnc5)sc4n3)cn2)CC1 [Example 48] | + |
| +++ | c1cncc(-c2cc3ncc(-c4ccc(N5CCCC5)nc4)cc3s2)c1 [Example 18] | +++ |
| + | c1cncc(-c2cc3ccc(Nc4ccc(N5CCOCC5)cc4)nc3s2)c1 [Example 65] | +++ |
| ++ | FCCNc1ccc(-c2ccc3cc(-c4cccnc4)sc3n2)cn1 [Example 56] | ++ |
| + | FCCOC1CCN(c2ccc3cc(-c4cccnc4)sc3n2)CC1 [Example 67] | + |
| ++ | CNc1ccc(-c2ccc3cc(-c4ccc(OC)c(O)c4)sc3n2)cc1 [Example 30] | ++ |
| ++ | O=C1COCCN1c1ccc2nc(-c3ccc(N4CCC[C@@H](F)C4)nc3)sc2c1 [Example 126] | ++ |
| +++ | c1cncc(-c2cc3ccc(-c4ccc(N5CCCC5)nc4)nc3s2)c1 [Example 32] | +++ |
| + | F[C@@H]1CCN(c2ccc(-c3ccc4sc(-c5cccnc5)cc4n3)cn2)C1 [Example 44] | − |
| + | Cn1cc(-c2ccc3sc(-c4ccc(N5CC[C@H](F)C5)nc4)nc3c2)cn1 [Example 53] | + |
| + | CNc1ccc(-c2ccc3cc(-c4ccc(C#N)cn4)sc3n2)cn1 [Example 5] | + |
| + | Cn1cc(-c2ccc3sc(-c4ccc(N5CCCC5)nc4)nc3c2)cn1 [Example 20] | − |
| +++ | COc1ccc(/C=C/c2ccc3cc(-c4cccnc4)sc3n2)cc1 [Example 15] | +++ |
| +++ | CN(C)c1ccc(-c2cc3ccc(-c4ccc(F)nc4)nc3s2)cn1 [Example 36] | +++ |
| +++ | O=C1c2sc(-c3ccc(N4CCCC4)nc3)nc2CCN1c1cccnc1 [Example 80] | ++ |

From patent US11623931B2, “Bicyclic compounds for diagnosis and therapy” (AC IMMUNE SA, priority 2016, dated 2023)
